# What was measured:
# Type in all cases: cell-based
# NCI-H460 [1] = test: MTT assay of cellular proliferation; conditions: Homo sapiens, 50% inhibition of cellular proliferation
# Procedure, shortened: (§1)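 Cells grew in DMEM with 5% FBS, 2 mM L-glutamine and 1 mM pyruvate at 37 °C, 5% CO2, were seeded to 20-30% confluence over 15-24 h, then exposed to compound at 1 nM to 30 μM. MTT was added for 3-4 h; solubilized formazan was read at 570 nm and EC50 taken as 50% inhibition of proliferation.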
# T98G [2] = test: MTT assay of cellular proliferation; conditions: Homo sapiens, 50% inhibition of cellular proliferation
# Procedure, shortened: as §1
# Hela [3] = test: MTT assay of cellular proliferation; conditions: Homo sapiens, 50% inhibition of cellular proliferation
# Procedure, shortened: as §1
# MDA-MB-231 [4] = test: MTT assay of cellular proliferation; conditions: Homo sapiens; MDA-MB-231, MTT, 50% inhibition of cellular proliferation
# Procedure, shortened: as §1
# NCI-H23 [5] = test: MTT assay of cellular proliferation; conditions: Homo sapiens, 50% inhibition of cellular proliferation
# Procedure, shortened: as §1
# T2 HCC [6] = test: MTT assay of cellular proliferation; conditions: Mus musculus, 50% inhibition of cellular proliferation
# Procedure, shortened: as §1
# NCI-H596 [7] = test: MTT assay of cellular proliferation; conditions: Homo sapiens, 50% inhibition of cellular proliferation
# Procedure, shortened: as §1
# HCT116 [8] = test: MTT assay of cellular proliferation; conditions: Homo sapiens, HCT-116, 50% inhibition of cellular proliferation
# Procedure, shortened: as §1
# NCI-H23 [9] = test: MECP in cancer cell line; conditions: Homo sapiens
# Procedure, shortened: (§2)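 Potency reported in bins: A 1 nM-1.0 μM, B to 10.0 μM, C to 30.0 μM, D above 30.0 μM. Compounds (1 nM-30 μM) applied to cells in DMEM/5% FBS; imaging-based readout at 24-72 h of mitotic index (raised at 24 h) and polyploidy (48 h), marking cytokinetic failure.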
# NCI-H460 [10] = test: MECP in cancer cell line; conditions: Homo sapiens
# Procedure, shortened: as §2
# T98G [11] = test: MECP in cancer cell line; conditions: Homo sapiens
# Procedure, shortened: as §2
# Hela [12] = test: MECP in cancer cell line; conditions: Homo sapiens
# Procedure, shortened: as §2
# MDA-MB-231 [13] = test: MECP in cancer cell line; conditions: Homo sapiens
# Procedure, shortened: as §2
# T2 HCC [14] = test: MECP in cancer cell line; conditions: Mus musculus
# Procedure, shortened: as §2
# NCI-H596 [15] = test: MECP in cancer cell line; conditions: Homo sapiens
# Procedure, shortened: as §2
# HCT116 [16] = test: MECP in cancer cell line; conditions: Homo sapiens, HCT-116
# Procedure, shortened: as §2
EC50 (NCI-H460 [1]) [nM],EC50 (Hela [3]) [nM],EC50 (MDA-MB-231 [4]) [nM],EC50 (NCI-H23 [5]) [nM],EC50 (T2 HCC [6]) [nM],EC50 (NCI-H596 [7]) [nM],EC50 (HCT116 [8]) [nM],SMILES,EC50 (T98G [2]) [nM],minimal effective concentration (NCI-H23 [9]) [µM],minimal effective concentration (NCI-H460 [10]) [µM],minimal effective concentration (T98G [11]) [µM],minimal effective concentration (Hela [12]) [µM],minimal effective concentration (MDA-MB-231 [13]) [µM],minimal effective concentration (T2 HCC [14]) [µM],minimal effective concentration (NCI-H596 [15]) [µM],minimal effective concentration (HCT116 [16]) [µM]
> 30000,1 to 1000,1 to 1000,1 to 1000,1 to 1000,1 to 1000,1 to 1000,"COC(=O)c1cc(Oc2ncnc3cc[nH]c23)cc(C(=O)OC)c1 [Compound 36, dimethyl 5-((5H-pyrrolo[3,2-d]pyrimidin-4-yl)oxy)isophthalate]",1 to 1000,0.001 to 1,1 to 10,0.001 to 1,0.001 to 1,0.001 to 1,0.001 to 1,0.001 to 1,0.001 to 1
> 30000,1 to 1000,1 to 1000,1 to 1000,1 to 1000,1 to 1000,1 to 1000,"COC(=O)c1cc(OC)cc(Oc2ncnc3cc[nH]c23)c1 [Compound 34, methyl 3-((5H-pyrrolo[3,2-d]pyrimidin-4-yl)oxy)-5-methoxybenzoate]",> 30000,0.001 to 1,1 to 10,1 to 10,0.001 to 1,0.001 to 1,0.001 to 1,0.001 to 1,0.001 to 1
1000 to 10000,1000 to 10000,1 to 1000,1 to 1000,1000 to 10000,1000 to 10000,1 to 1000,"COc1cc(OC)cc(Oc2ccnc3ccccc23)c1 [Compound 7, 4-(3,5-dimethoxyphenoxy)quinoline]",1 to 1000,0.001 to 1,1 to 10,0.001 to 1,0.001 to 1,0.001 to 1,1 to 10,0.001 to 1,0.001 to 1
> 30000,1 to 1000,1 to 1000,1 to 1000,1 to 1000,1 to 1000,1 to 1000,"COC(=O)c1cc(OC)cc(Oc2ncnc3ccsc23)c1 [Compound 37, methyl 3-methoxy-5-(thieno[3,2-d]pyrimidin-4-yloxy)benzoate]",> 30000,0.001 to 1,1 to 10,1 to 10,0.001 to 1,0.001 to 1,0.001 to 1,0.001 to 1,0.001 to 1

SMILES,EC50 (NCI-H460 [1]) [nM],EC50 (Hela [3]) [nM],EC50 (MDA-MB-231 [4]) [nM],EC50 (NCI-H23 [5]) [nM],EC50 (T2 HCC [6]) [nM],EC50 (NCI-H596 [7]) [nM],EC50 (HCT116 [8]) [nM],EC50 (T98G [2]) [nM],minimal effective concentration (NCI-H23 [9]) [µM],minimal effective concentration (NCI-H460 [10]) [µM],minimal effective concentration (T98G [11]) [µM],minimal effective concentration (Hela [12]) [µM],minimal effective concentration (MDA-MB-231 [13]) [µM],minimal effective concentration (T2 HCC [14]) [µM],minimal effective concentration (NCI-H596 [15]) [µM],minimal effective concentration (HCT116 [16]) [µM]
"COC(=O)c1cc(Oc2ncnc3ccsc23)cc(C(=O)OC)c1 [Compound 39, dimethyl 5-(thieno[3,2-d]pyrimidin-4-yloxy)isophthalate]",> 30000,1 to 1000,1 to 1000,1 to 1000,1 to 1000,> 30000,1 to 1000,1 to 1000,0.001 to 1,1 to 10,0.001 to 1,0.001 to 1,0.001 to 1,0.001 to 1,0.001 to 1,0.001 to 1
COC(=O)c1cc(OC)cc(Oc2ncnc3cc(OC)c(OC)cc23)c1 [Compound 29],> 30000,1 to 1000,1 to 1000,1 to 1000,1 to 1000,1 to 1000,1000 to 10000,1000 to 10000,0.001 to 1,1 to 10,1 to 10,0.001 to 1,1 to 10,0.001 to 1,0.001 to 1,1 to 10
